Values after ≈ are worked out from the molar mass of the structure shown.
Legend:
Staphylococcus aureus [1] = experiment: Antibacterial activity against efflux-mediated macrolide-resistance Staphylococcus aureus PK1 by broth microdilution method; format: functional
Staphylococcus aureus [2] = experiment: Antibacterial activity against inducible resistance to macrolide, licosamide, and streptogramin Staphylococcus aureus 90265/97 by broth microdilution method; format: functional
Streptococcus pneumoniae [3] = experiment: Antibacterial activity against efflux-mediated macrolide-resistance Streptococcus pneumoniae Ci137 by broth microdilution method; format: functional; details: read-out: MIC
Streptococcus pyogenes [4] = experiment: Antibacterial activity against inducible resistance to macrolide, licosamide and streptogramin Streptococcus pyogenes 11 by broth microdilution method; format: functional; details: read-out: MIC
HepG2 = experiment: Cytotoxicity against human HepG2 cells after 24 hrs by MTS assay; format: cell-based; details: HepG2, 24 h
Streptococcus pyogenes [5] = experiment: Antibacterial activity against efflux-mediated macrolide-resistance Streptococcus pyogenes 2 by broth microdilution method; format: functional
Haemophilus influenzae = experiment: Antibacterial activity against Haemophilus influenzae ATCC 49247 by broth microdilution method; format: functional
THP-1 = experiment: Cytotoxicity against human THP1 cells after 24 hrs by MTS assay; format: cell-based; details: THP-1, 24 h
Streptococcus pneumoniae [6] = experiment: Antibacterial activity against inducible resistance to macrolide and constitutive resistance to lincosamide Streptococcus pneumoniae 134 GR M by broth microdilution method; format: functional
Streptococcus pneumoniae [7] = experiment: Antibacterial activity against constitutive MLS resistance Streptococcus pneumoniae 58 by broth microdilution method; format: functional
Streptococcus pyogenes [8] = experiment: Antibacterial activity against constitutive MLS resistance Streptococcus pyogenes 166 GR-Micro by broth microdilution method; format: functional

## CC[C@H]1OC(=O)[C@H](C)[C@@H](O[C@H]2C[C@@](C)(OC)[C@@H](OCCCOCCCc3ccc4c(c3)c(=O)c(C(=O)O)cn4CC)[C@H](C)O2)[C@H](C)[C@@H](O[C@@H]2O[C@H](C)C[C@H](N(C)C)[C@H]2O)[C@](C)(O)C[C@@H](C)CN(C)[C@H](C)[C@@H](O)[C@]1(C)O
Staphylococcus aureus [1]
  MIC: ≤ 0.125 µg/mL
Staphylococcus aureus [2]
  MIC: ≤ 0.125 µg/mL
Streptococcus pneumoniae [3]
  MIC: ≤ 0.125 µg/mL
Streptococcus pyogenes [4]
  MIC: ≤ 0.125 µg/mL
HepG2
  IC50: > 50 µM
Streptococcus pyogenes [5]
  MIC: ≤ 0.125 µg/mL
Haemophilus influenzae
  MIC: 1 µg/mL (≈ 0.94 µM)
THP-1
  IC50: > 50 µM
Streptococcus pneumoniae [6]
  MIC: ≤ 0.125 µg/mL
Streptococcus pneumoniae [7]
  MIC: ≤ 0.125 µg/mL
Streptococcus pyogenes [8]
  MIC: ≤ 0.125 µg/mL

## CC[C@H]1OC(=O)[C@H](C)[C@@H](O[C@H]2C[C@@](C)(OC)[C@@H](OCCCOCCCCCc3ccc4c(c3)c(=O)c(C(=O)O)cn4CC)[C@H](C)O2)[C@H](C)[C@@H](O[C@@H]2O[C@H](C)C[C@H](N(C)C)[C@H]2O)[C@](C)(O)C[C@@H](C)CN(C)[C@H](C)[C@@H](O)[C@]1(C)O
Staphylococcus aureus [1]
  MIC: ≤ 0.125 µg/mL
Staphylococcus aureus [2]
  MIC: ≤ 0.125 µg/mL
Streptococcus pneumoniae [3]
  MIC: ≤ 0.125 µg/mL
Streptococcus pyogenes [4]
  MIC: ≤ 0.125 µg/mL
HepG2
  IC50: 20 µM
Streptococcus pyogenes [5]
  MIC: ≤ 0.125 µg/mL
Haemophilus influenzae
  MIC: 2 µg/mL (≈ 1.83 µM)
THP-1
  IC50: 9 µM
Streptococcus pneumoniae [6]
  MIC: 0.5 µg/mL (≈ 0.458 µM)
Streptococcus pneumoniae [7]
  MIC: ≤ 0.125 µg/mL
Streptococcus pyogenes [8]
  MIC: 0.25 µg/mL (≈ 0.229 µM)

## CC[C@H]1OC(=O)[C@H](C)[C@@H](O[C@H]2C[C@@](C)(OC)[C@@H](OCCCOCCCCc3cc4c5c(c3)c(=O)c(C(=O)O)cn5C(C)(C)CO4)[C@H](C)O2)[C@H](C)[C@@H](O[C@@H]2O[C@H](C)C[C@H](N(C)C)[C@H]2O)[C@](C)(O)C[C@@H](C)CN(C)[C@H](C)[C@@H](O)[C@]1(C)O
Staphylococcus aureus [1]
  MIC: ≤ 0.125 µg/mL
Staphylococcus aureus [2]
  MIC: ≤ 0.125 µg/mL
Streptococcus pneumoniae [3]
  MIC: ≤ 0.125 µg/mL
Streptococcus pyogenes [4]
  MIC: ≤ 0.125 µg/mL
HepG2
  IC50: 46 µM
Streptococcus pyogenes [5]
  MIC: ≤ 0.125 µg/mL
Haemophilus influenzae
  MIC: 1 µg/mL (≈ 0.893 µM)
THP-1
  IC50: 11 µM
Streptococcus pneumoniae [6]
  MIC: 0.5 µg/mL (≈ 0.446 µM)
Streptococcus pneumoniae [7]
  MIC: ≤ 0.125 µg/mL
Streptococcus pyogenes [8]
  MIC: 0.5 µg/mL (≈ 0.446 µM)
